Data reported in ChEMBL document CHEMBL1201862, “PubChem BioAssay data set” (2004).
Calls of active or inactive are those of the source.

Columns and labels:
[1] = viability inhibitors of stage V gametocytes – luminescence, dose response (AID 1117278); assay type: functional, cell-based;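 further: gametocytes exposed to compound for 24 hours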
[2] = viability loss in human Jurkat cells – cell-based, luminescence, cytotoxicity control for P. falciparum gametocyte viability project, dose response (AID 1117277); assay type: functional;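 further: potency reflects loss of cellular ATP meaning fewer viable cells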
[3] = target: Induced myeloid leukemia cell differentiation protein Mcl-1 (Homo sapiens, UniProt Q07820); assay type: functional
[4] = target: Genome polyprotein (Hepatitis C virus, UniProt Q2Q167); assay: disruption of hepatitis C core self-association – biochemical, TR-FRET, dose response (AID 2159); design: species or system Hepacivirus hominis;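 further: blocks dimerization of HCV core protein measured by TR-FRET between tagged core106 pairs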
[5] = fluconazole-exposed Candida albicans growth modulators – fluorescence, retest, confirmation (AID 2467); assay type: functional, cell-based
[6] = tested on: Vero; assay: mammalian cell viability reduction – secondary assay, cytotoxicity control for West Nile virus antiviral project, dose response (AID 1650); assay type: functional; details: Chlorocebus sabaeus
[7] = NIH-3T3 fibroblast cytotoxicity, dose response, cytotoxicity control, cell-based, fluorescence, Alamar Blue, secondary assay (AID 2327); assay type: functional;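 further: NIH-3T3 mouse fibroblasts cultured with fluconazole at 8 µg/mL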
[8] = target: Eukaryotic translation initiation factor 4E (Mus musculus, UniProt P63073); assay: blockers of eIF4G binding by eIF4E – biochemical, TR-FRET, dose response (AID 855); assay type: functional;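 further: potency for disrupting eIF4E binding to eIF4GI seen as loss of FRET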
[9] = target: T1, Small ubiquitin-related modifier 1 (Homo sapiens, UniProt P63165); assay: SUMO1 protein-protein binding blockers, potency – biochemical, FRET, dose response (AID 624383); assay type: functional; details: read-out: IC50_Mean
[10] = target: T2, Small ubiquitin-related modifier 2 (Homo sapiens, UniProt P61956); assay: disruption of SUMO2 interaction with SIM peptide – biochemical, fluorescence polarization, uHTS hits, selectivity assay for SUMO1 interaction inhibitor project, dose response (AID 624385); assay type: functional; details: read-out: IC50_Mean
[11] = target: T1, Small ubiquitin-related modifier 1; assay: SUMO1 protein interaction blockers, potency – biochemical, fluorescence polarization, uHTS hits, dose response (AID 624382); assay type: functional; details: read-out: IC50_Mean
[12] = target: Acetyl-CoA acetyltransferase/HMG-CoA reductase (Enterococcus faecalis, UniProt Q9FD70); assay: class II HMG-CoA reductase inhibition potency – biochemical, Enterococcus faecalis, confirmation (AID 1233); assay type: functional
[13] = target: T2, Small ubiquitin-related modifier 2; assay: SUMO2 binding disruption by SUMO1 hits – biochemical, FRET, human SUMO2, uHTS hits, selectivity assay for SUMO1 interaction inhibitor project, dose response (AID 624384); assay type: functional; details: read-out: IC50_Mean
[14] = target: T3, NADPH oxidase 1 (Homo sapiens, UniProt Q9Y5S8); assay: Late-stage luminescence-based cell-based dose response assay to identify inhibitors of NADPH oxidase 1 (NOX1): Synthesized analogs 2.; assay type: functional
T3 sequence (Q9Y5S8 whole entry): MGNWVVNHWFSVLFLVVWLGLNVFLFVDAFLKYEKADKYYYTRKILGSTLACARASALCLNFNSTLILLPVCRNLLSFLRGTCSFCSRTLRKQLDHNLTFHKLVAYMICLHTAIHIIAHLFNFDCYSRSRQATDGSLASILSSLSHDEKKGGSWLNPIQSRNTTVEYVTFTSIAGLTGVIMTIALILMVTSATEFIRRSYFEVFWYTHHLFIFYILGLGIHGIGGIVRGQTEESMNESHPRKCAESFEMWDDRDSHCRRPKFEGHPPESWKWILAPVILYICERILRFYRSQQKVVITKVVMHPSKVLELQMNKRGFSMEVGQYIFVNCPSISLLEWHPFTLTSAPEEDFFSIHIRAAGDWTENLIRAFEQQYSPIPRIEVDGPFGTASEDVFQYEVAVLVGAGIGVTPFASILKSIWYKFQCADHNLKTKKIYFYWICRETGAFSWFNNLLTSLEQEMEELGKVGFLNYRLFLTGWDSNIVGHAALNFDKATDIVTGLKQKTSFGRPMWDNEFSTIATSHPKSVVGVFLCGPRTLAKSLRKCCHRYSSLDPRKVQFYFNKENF

[15] = target: T3, NADPH oxidase 1; assay: Late-stage luminescence-based cell-based dose response assay to identify inhibitors of NADPH oxidase 1 (NOX1): Synthesized analogs.; assay type: functional
[16] = target: T3, NADPH oxidase 1; assay: Luminescence-based cell-based dose response assay to identify inhibitors of NADPH oxidase 1 (NOX1).; assay type: functional
[17] = target: T4, Bcl-2-related protein A1 (Mus musculus, UniProt Q07440); assay: small-molecule antagonists of Bfl-1/BH3 interaction – biochemical, TR-FRET, mouse Bfl-1, confirmation (AID 621);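 further: TR-FRET binding of GST-Bfl-1 to FITC-labelled Bid peptide via terbium antibody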
T4 sequence (Q07440 whole entry): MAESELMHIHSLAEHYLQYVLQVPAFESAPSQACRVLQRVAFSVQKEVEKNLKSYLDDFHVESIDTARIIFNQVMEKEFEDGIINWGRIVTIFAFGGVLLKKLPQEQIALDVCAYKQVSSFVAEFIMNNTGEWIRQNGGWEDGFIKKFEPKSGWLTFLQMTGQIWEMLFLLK

[18] = target: T4, Bcl-2-related protein A1; assay: Bfl-1 binding inhibitors, SAR follow-up, biochemical, fluorescence polarization (AID 1070)
[19] = M. tuberculosis H37Rv growth inhibitors, H37Rv strain (AID 1626); assay type: functional

T1 sequence (P63165 whole entry): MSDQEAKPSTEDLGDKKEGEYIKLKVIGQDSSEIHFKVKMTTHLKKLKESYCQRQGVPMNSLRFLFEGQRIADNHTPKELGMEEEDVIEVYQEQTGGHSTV
T2 sequence (P61956 whole entry): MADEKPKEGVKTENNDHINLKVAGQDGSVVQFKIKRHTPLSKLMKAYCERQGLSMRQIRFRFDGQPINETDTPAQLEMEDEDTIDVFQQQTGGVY
Chain of Genome polyprotein (Q2Q167 whole entry): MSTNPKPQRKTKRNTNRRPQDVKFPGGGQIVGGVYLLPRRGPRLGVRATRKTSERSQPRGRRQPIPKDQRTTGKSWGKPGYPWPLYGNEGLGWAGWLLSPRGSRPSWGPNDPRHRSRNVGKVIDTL
Chain of Eukaryotic translation initiation factor 4E (P63073 whole entry): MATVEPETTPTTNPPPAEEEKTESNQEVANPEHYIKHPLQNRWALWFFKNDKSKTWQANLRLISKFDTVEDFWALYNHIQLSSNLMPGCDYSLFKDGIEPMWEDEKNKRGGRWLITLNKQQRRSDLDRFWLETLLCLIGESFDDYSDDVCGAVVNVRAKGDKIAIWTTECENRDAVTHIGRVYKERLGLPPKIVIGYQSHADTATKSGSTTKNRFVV
Chain of Induced myeloid leukemia cell differentiation protein Mcl-1 (Q07820 whole entry): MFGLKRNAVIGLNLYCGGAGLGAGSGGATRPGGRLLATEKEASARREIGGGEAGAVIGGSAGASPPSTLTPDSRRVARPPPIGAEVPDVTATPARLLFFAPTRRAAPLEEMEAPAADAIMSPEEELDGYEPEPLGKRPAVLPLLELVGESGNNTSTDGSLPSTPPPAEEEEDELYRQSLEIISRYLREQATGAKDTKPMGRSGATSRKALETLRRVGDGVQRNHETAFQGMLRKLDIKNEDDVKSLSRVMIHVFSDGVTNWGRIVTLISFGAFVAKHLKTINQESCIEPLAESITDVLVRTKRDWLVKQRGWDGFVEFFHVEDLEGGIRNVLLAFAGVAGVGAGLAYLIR

## CCN(CC)S(=O)(=O)c1ccc(N2CCOCC2)c(NC(=O)c2c3c(nc4ccccc24)CCC3)c1
[1]
  IC50: > 109 µM (inactive)
[2]
  IC50: > 83.3 µM (inactive)
[3]
  IC50: 5.07 µM (active)
[4]
  IC50: > 49.8 µM (not active)

## Nc1nsc2ccccc12
[5]
  EC50: 3.19 µM (active)
[6]
  CC50: 41.7 µM (active)
[7]
  EC50: 24.5 µM (inconclusive)

## O=C(CSc1nc(-c2ccccc2)nc2c1Cc1ccccc1O2)Nc1ccc(C(=O)O)cc1
[8]
  IC50: 17.1 µM (active)
[9]
  IC50: 5.3 µM (active)
[10]
  IC50: 35.1 µM (inactive)
[11]
  IC50: 23.1 µM (inactive)
[12]
  IC50: 164 µM (active)
[13]
  IC50: 6.38 µM (active)

## O=C(c1ccccc1)c1ccccc1N1c2ccccc2Sc2ccccc21
[14]
  IC50: > 50 µM (not active)

## COc1ccc2c(c1)S(=O)(=O)c1ccccc1N2
[15]
  IC50: > 50 µM (not active)
[16]
  IC50: > 20 µM (not active)

## C[C@H]1CN(C2=C(Cl)C(=O)N(c3ccc(Cl)c(Cl)c3)C2=O)CCN1
[17]
  IC50: 1.25 µM (active)
[18]
  IC50: 1.32 µM (active)

## CCOC(=O)c1ccc(NCc2ccc(N(C)C)cc2)cc1
[19]
  IC50: > 100 µM (active)
